Bounds are passed on as bounds.

Experimental findings from US10450316B2, “Certain protein kinase inhibitor” (Chongqing Fochon Pharmaceutical Co., Ltd., priority 2015, dated 2019) are described below.

The subject of this experiment is BE(2)-C cell. The experiment in a line: Cell proliferation assay (MTS) in BE(2)-C cells. Conditions: Homo sapiens, inhibition of BE(2)-C cell proliferation, 48 h. Format: cell-based. How it is done: MTS testing kit was purchased from Promega. The DMEM, Fetal bovine serum and Penicillin-Streptomycin were purchased from Gibco. Dimethyl sulfoxide (DMSO) was purchased from Sigma.
To investigate whether a compound is able to inhibit the activity of CDK4/6 in cells, mechanism-based assays using BE(2)-C cell (ATCC® number:CRL-2268) were developed. In the assay, inhibition of CDK4/6 was detected by the inhibition of BE(2)-C cell cells proliferation. BE(2)-C cell cells were cultured in culture flasks to 40-80% confluence in DMEM plus 10% fetal bovine serum. Cells were collected and plated onto 96-well plates at cell density of 3000 cells/well. Plates were incubated overnight at 37° C., with 5% CO2 to adhere. Compounds were added to the plates, the final compound concentrations were 10000, 3333, 1111, […], 123.5, 41.2, 13.7, 4.6 and 1.5 nM. Place plates at 37° C., with 5% CO2 for 48 h. After removing the medium, 20 μl MTS/100 μl medium mixture solution were added to each well and incubate the plates for exactly 2 hours. The reaction was terminated by adding 25 μl 10% SDS per well. Measure absorbance at 490 nm and 650 nm (reference wavelength). IC50 was calculated using GraphPad Prism 5.0.
Select compounds prepared as described above were assayed according to the biological procedures described herein. “++++” stands for IC50 value below about 10 nM. “+++” stands for IC50 value between greater than about 10 nM to about 100 nM. “++” stands for IC50 value between greater than about 100 nM to about […]. “+” stands for IC50 value greater than 1 μM.
A word on the IC50: it is the concentration that inhibits the measured activity by half. With `CC1CCc2nc3c(F)cc(-c4nc(Nc5ccc(CN6CCNCC6)cn5)ncc4F)cc3n21` (stereo in doubt) [Example 155, (R)-5-fluoro-4-(5-fluoro-1-methyl-2,3-dihydro-1H-benzo[d]pyrrolo[1,2-a]imidazol-7-yl)-N-(5-(piperazin-1-ylmethyl)pyridin-2-yl)pyrimidin-2-amine], the half-inhibitory concentration (IC50) was above 100 nM. On to `OC[C@@H]1CCc2nc3c(F)cc(-c4nc(Nc5ccc(CN6CCNCC6)cn5)ncc4F)cc3n21` [Example 1, (S)-(5-fluoro-7-(5-fluoro-2-((5-(piperazin-1-ylmethyl)pyridin-2-yl)amino)pyrimidin-4-yl)-2,3-dihydro-1H-benzo[d]pyrrolo[1,2-a]imidazol-1-yl)methanol], for which the IC50 was above 1000 nM. As for `CN1CCN(Cc2ccc(Nc3ncc(F)c(-c4cc(F)c5nc6n(c5c4)[C@H](CO)CC6)n3)nc2)CC1` [Example 2, (S)-(5-fluoro-7-(5-fluoro-2-((5-((4-methylpiperazin-1-yl)methyl)pyridin-2-yl)amino)pyrimidin-4-yl)-2,3-dihydro-1H-benzo[d]pyrrolo[1,2-a]imidazol-1-yl)methanol], the figure is above 100 nM. To `CCN1CCN(Cc2ccc(Nc3ncc(F)c(-c4cc(F)c5nc6n(c5c4)[C@H](CO)CC6)n3)nc2)CC1` [Example 3, (S)-(7-(2-((5-((4-ethylpiperazin-1-yl)methyl)pyridin-2-yl)amino)-5-fluoropyrimidin-4-yl)-5-fluoro-2,3-dihydro-1H-benzo[d]pyrrolo[1,2-a]imidazol-1-yl) methanol] belongs above 100 nM; to `FC[C@@H]1CCc2nc3c(F)cc(-c4nc(Nc5ccc(CN6CCNCC6)cn5)ncc4F)cc3n21` [Example 4, (S)-5-fluoro-4-(5-fluoro-1-(fluoromethyl)-2,3-dihydro-1H-benzo[d]pyrrolo[1,2-a]imidazol-7-yl)-N-(5-(piperazin-1-ylmethyl)pyridin-2-yl)pyrimidin-2-amine], above 100 nM; to `CN1CCN(Cc2ccc(Nc3ncc(F)c(-c4cc(F)c5nc6n(c5c4)[C@H](CF)CC6)n3)nc2)CC1` [Example 5, (S)-5-fluoro-4-(5-fluoro-1-(fluoromethyl)-2,3-dihydro-1H-benzo[d]pyrrolo[1,2-a]imidazol-7-yl)-N-(5-((4-methylpiperazin-1-yl)methyl)pyridin-2-yl)pyrimidin-2-amine], above 100 nM. The compound `CCN1CCN(Cc2ccc(Nc3ncc(F)c(-c4cc(F)c5nc6n(c5c4)[C@H](CF)CC6)n3)nc2)CC1` [Example 6, (S)—N-(5-((4-ethylpiperazin-1-yl)methyl)pyridin-2-yl)-5-fluoro-4-(5-fluoro-1-(fluoromethyl)-2,3-dihydro-1H-benzo[d]pyrrolo[1,2-a]imidazol-7-yl)pyrimidin-2-amine] showed an IC50 above 100 nM. `COC[C@@H]1CCc2nc3c(F)cc(-c4nc(Nc5ccc(CN6CCNCC6)cn5)ncc4F)cc3n21` [Example 7, (S)-5-fluoro-4-(5-fluoro-1-(methoxymethyl)-2,3-dihydro-1H-benzo[d]pyrrolo[1,2-a]imidazol-7-yl)-N-(5-(piperazin-1-ylmethyl)pyridin-2-yl)pyrimidin-2-amine] displayed an IC50 above 100 nM. As for `COC[C@@H]1CCc2nc3c(F)cc(-c4nc(Nc5ccc(CN6CCN(C)CC6)cn5)ncc4F)cc3n21` [Example 8, (S)-5-fluoro-4-(5-fluoro-1-(methoxymethyl)-2,3-dihydro-1H-benzo[d]pyrrolo[1,2-a]imidazol-7-yl)-N-(5-((4-methylpiperazin-1-yl)methyl)pyridin-2-yl)pyrimidin-2-amine], the figure is above 100 nM; as for `CCN1CCN(Cc2ccc(Nc3ncc(F)c(-c4cc(F)c5nc6n(c5c4)[C@H](COC)CC6)n3)nc2)CC1` [Example 9, (S)—N-(5-((4-ethylpiperazin-1-yl)methyl)pyridin-2-yl)-5-fluoro-4-(5-fluoro-1-(methoxymethyl)-2,3-dihydro-1H-benzo[d]pyrrolo[1,2-a]imidazol-7-yl)pyrimidin-2-amine], above 100 nM; as for `Fc1cnc(Nc2ccc(CN3CCNCC3)cn2)nc1-c1cc(F)c2nc3n(c2c1)[C@H](C(F)F)CC3` [Example 10, (S)-4-(1-(difluoromethyl)-5-fluoro-2,3-dihydro-1H-benzo[d]pyrrolo[1,2-a]imidazol-7-yl)-5-fluoro-N-(5-(piperazin-1-ylmethyl)pyridin-2-yl)pyrimidin-2-amine], above 100 nM. As for `Fc1cnc(Nc2ccc(CN3CCNCC3)cn2)nc1-c1cc(F)c2nc3n(c2c1)C1(CC3)CC1` [Example 13, 5-fluoro-4-(5-fluoro-2,3-dihydrospiro[benzo[d]pyrrolo[1,2-a]imidazole-1,1′-cyclopropan]-7-yl)-N-(5-(piperazin-1-ylmethyl)pyridin-2-yl)pyrimidin-2-amine], the figure is above 100 nM; as for `CN1CCN(Cc2ccc(Nc3ncc(F)c(-c4cc(F)c5nc6n(c5c4)C4(CC6)CC4)n3)nc2)CC1` [Example 14, 5-fluoro-4-(5-fluoro-2,3-dihydrospiro[benzo[d]pyrrolo[1,2-a]imidazole-1,1′-cyclopropan]-7-yl)-N-(5-((4-methylpiperazin-1-yl)methyl)pyridin-2-yl)pyrimidin-2-amine], above 100 nM; as for `CCN1CCN(Cc2ccc(Nc3ncc(F)c(-c4cc(F)c5nc6n(c5c4)C4(CC6)CC4)n3)nc2)CC1` [Example 15, N-(5-((4-ethylpiperazin-1-yl)methyl)pyridin-2-yl)-5-fluoro-4-(5-fluoro-2,3-dihydrospiro[benzo[d]pyrrolo[1,2-a]imidazole-1,1′-cyclopropan]-7-yl)pyrimidin-2-amine], above 100 nM.

`Fc1cnc(Nc2ccc(CN3CCNCC3)cn2)nc1-c1cc(F)c2nc3n(c2c1)[C@H](C(F)(F)F)CC3` [Example 16, (S)-5-fluoro-4-(5-fluoro-1-(trifluoromethyl)-2,3-dihydro-1H-benzo[d]pyrrolo[1,2-a]imidazol-7-yl)-N-(5-(piperazin-1-ylmethyl)pyridin-2-yl)pyrimidin-2-amine] displayed a half-maximal inhibitory concentration (IC50) of 10 to 100 nM. To `CN1CCN(Cc2ccc(Nc3ncc(F)c(-c4cc(F)c5nc6n(c5c4)[C@H](C(F)(F)F)CC6)n3)nc2)CC1` [Example 17, (S)-5-fluoro-4-(5-fluoro-1-(trifluoromethyl)-2,3-dihydro-1H-benzo[d]pyrrolo[1,2-a]imidazol-7-yl)-N-(5-((4-methylpiperazin-1-yl)methyl)pyridin-2-yl)pyrimidin-2-amine] belongs 10 to 100 nM; to `CCN1CCN(Cc2ccc(Nc3ncc(F)c(-c4cc(F)c5nc6n(c5c4)[C@H](C(F)(F)F)CC6)n3)nc2)CC1` [Example 18, (S)—N-(5-((4-ethylpiperazin-1-yl)methyl)pyridin-2-yl)-5-fluoro-4-(5-fluoro-1-(trifluoromethyl)-2,3-dihydro-1H-benzo[d]pyrrolo[1,2-a]imidazol-7-yl)pyrimidin-2-amine], 10 to 100 nM.

Compound `FC[C@@H]1CCc2nc3c(F)cc(-c4nc(Nc5ccc(CN6CCN7CCC[C@@H]7C6)cn5)ncc4F)cc3n21` [Example 19, 5-fluoro-4-((S)-5-fluoro-1-(fluoromethyl)-2,3-dihydro-1H-benzo[d]pyrrolo[1,2-a]imidazol-7-yl)-N-(5-(((R)-hexahydropyrrolo[1,2-a]pyrazin-2(1H)-yl)methyl)pyridin-2-yl)pyrimidin-2-amine] registered an IC50 below 10 nM. Consider `FC[C@@H]1CCc2nc3c(F)cc(-c4nc(Nc5ccc(CN6CC7(CCNCC7)C6)cn5)ncc4F)cc3n21` [Example 20, (S)-N-(5-((2,7-diazaspiro[3.5]nonan-2-yl)methyl)pyridin-2-yl)-5-fluoro-4-(5-fluoro-1-(fluoro-methyl)-2,3-dihydro-1H-benzo[d]pyrrolo[1,2-a]imidazol-7-yl)pyrimidin-2-amine], for which the IC50 was above 1000 nM. As for `CN1CCC2(CC1)CN(Cc1ccc(Nc3ncc(F)c(-c4cc(F)c5nc6n(c5c4)[C@H](CF)CC6)n3)nc1)C2` [Example 21, (S)-5-fluoro-4-(5-fluoro-1-(fluoromethyl)-2,3-dihydro-1H-benzo[d]pyrrolo[1,2-a]imidazol-7-yl)-N-(5-((7-methyl-2,7-diazaspiro[3.5]nonan-2-yl)methyl)pyridin-2-yl)pyrimidin-2-amine], the figure is above 100 nM; as for `CCN1CCC2(CC1)CN(Cc1ccc(Nc3ncc(F)c(-c4cc(F)c5nc6n(c5c4)[C@H](CF)CC6)n3)nc1)C2` [Example 22, (S)-N-(5-((7-ethyl-2,7-diazaspiro[3.5]nonan-2-yl)methyl)pyridin-2-yl)-5-fluoro-4-(5-fluoro-1-(fluoromethyl)-2,3-dihydro-1H-benzo[d]pyrrolo[1,2-a]imidazol-7-yl)pyrimidin-2-amine], above 100 nM. `FC[C@@H]1CCc2nc3c(F)cc(-c4nc(Nc5ccc(CN6CC7(CNC7)C6)cn5)ncc4F)cc3n21` [Example 23, (S)-N-(5-((2,6-diazaspiro[3.3]heptan-2-yl)methyl)pyridin-2-yl)-5-fluoro-4-(5-fluoro-1-(fluoromethyl)-2,3-dihydro-1H-benzo[d]pyrrolo[1,2-a]imidazol-7-yl)pyrimidin-2-amine] displayed a 50% inhibitory concentration (IC50) above 1000 nM.
